Literature values, collected in patent US20060045850A1, “Nasal delivery of cyclodextrin complexes of anti-inflammatory steroids” (QPharma, LLC, priority 2004, published 2006).

absorption when administered orally (administered orally): no absorption | absolute bio-availability (from the suspension formulation, administered nasally): less than 2.0%
SMILES: CCC(=O)O[C@]1(C(=O)SCF)[C@H](C)C[C@H]2[C@@H]3C[C@H](F)C4=CC(=O)C=C[C@]4(C)[C@@]3(F)[C@@H](O)C[C@@]21C [Fluticasone]
